Counter-ions that a name gives are not always drawn. Like-named read-outs stand apart in the source and are kept apart here.
Legend:
human TLR8 = target: T1, human TLR8 (Homo sapiens, UniProt Q9NR97); test: HEK-Blue hTLR8 reporter cell assay (SEAP, NF-kB/AP-1) for stimulation of human TLR8; assay type: cell-based; details: HEK-Blue hTLR8 cells; for EC50: 24 h incubation, SEAP readout, read-out: TLR8_EC50; for activation at 20 µM: 24 h, at 20000 nM
T1 construct: host or cells: HEK293 (HEK-Blue hTLR8)
T1 sequence (Q9NR97 27-1041): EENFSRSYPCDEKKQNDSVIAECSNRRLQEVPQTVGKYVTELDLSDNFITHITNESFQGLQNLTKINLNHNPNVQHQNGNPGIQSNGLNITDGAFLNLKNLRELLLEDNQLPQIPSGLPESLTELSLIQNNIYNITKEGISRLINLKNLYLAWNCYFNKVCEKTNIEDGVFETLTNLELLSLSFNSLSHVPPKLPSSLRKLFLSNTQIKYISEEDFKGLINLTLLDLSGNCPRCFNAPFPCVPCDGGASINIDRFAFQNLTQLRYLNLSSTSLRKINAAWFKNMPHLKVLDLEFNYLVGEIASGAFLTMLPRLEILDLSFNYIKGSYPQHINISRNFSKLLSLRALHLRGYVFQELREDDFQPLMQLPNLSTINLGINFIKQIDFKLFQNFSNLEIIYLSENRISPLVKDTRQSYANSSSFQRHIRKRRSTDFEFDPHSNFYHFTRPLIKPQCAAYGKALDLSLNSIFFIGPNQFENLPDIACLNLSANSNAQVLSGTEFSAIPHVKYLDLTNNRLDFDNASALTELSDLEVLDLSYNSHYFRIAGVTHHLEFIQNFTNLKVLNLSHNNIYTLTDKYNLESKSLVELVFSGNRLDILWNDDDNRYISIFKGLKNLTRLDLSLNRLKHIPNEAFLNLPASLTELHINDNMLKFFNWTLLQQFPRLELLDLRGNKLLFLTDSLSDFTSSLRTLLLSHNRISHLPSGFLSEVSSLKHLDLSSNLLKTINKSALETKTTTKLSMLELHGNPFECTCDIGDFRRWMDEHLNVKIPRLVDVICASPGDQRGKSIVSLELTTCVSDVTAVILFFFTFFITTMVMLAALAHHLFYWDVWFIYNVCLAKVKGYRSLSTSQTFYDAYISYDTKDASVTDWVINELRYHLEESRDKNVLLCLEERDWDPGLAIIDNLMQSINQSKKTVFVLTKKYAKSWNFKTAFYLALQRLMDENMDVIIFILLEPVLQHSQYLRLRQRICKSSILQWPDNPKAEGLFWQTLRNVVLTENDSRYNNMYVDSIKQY
Method in brief: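 HEK293 cells carrying hTLR8 and a SEAP reporter driven by NF-κB/AP-1 sites were seeded at 3.10E4 cells/well and held 18 to 24 h at 37° C., 5% CO2 before compound addition. Supernatant SEAP measured with QUANTI-Blue™.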

human TLR7 = target: T2, human TLR7 (Homo sapiens, UniProt Q9NYK1); test: HEK-Blue hTLR7 reporter cell assay (SEAP, NF-kB/AP-1) for stimulation of human TLR7; assay type: cell-based; details: HEK-Blue hTLR7 cells; for EC50: read-out: TLR7_EC50; for activation at 20 µM: 24 h, at 20000 nM
T2 construct: host or cells: HEK293 (HEK-Blue hTLR7)
T2 sequence (Q9NYK1 27-1049): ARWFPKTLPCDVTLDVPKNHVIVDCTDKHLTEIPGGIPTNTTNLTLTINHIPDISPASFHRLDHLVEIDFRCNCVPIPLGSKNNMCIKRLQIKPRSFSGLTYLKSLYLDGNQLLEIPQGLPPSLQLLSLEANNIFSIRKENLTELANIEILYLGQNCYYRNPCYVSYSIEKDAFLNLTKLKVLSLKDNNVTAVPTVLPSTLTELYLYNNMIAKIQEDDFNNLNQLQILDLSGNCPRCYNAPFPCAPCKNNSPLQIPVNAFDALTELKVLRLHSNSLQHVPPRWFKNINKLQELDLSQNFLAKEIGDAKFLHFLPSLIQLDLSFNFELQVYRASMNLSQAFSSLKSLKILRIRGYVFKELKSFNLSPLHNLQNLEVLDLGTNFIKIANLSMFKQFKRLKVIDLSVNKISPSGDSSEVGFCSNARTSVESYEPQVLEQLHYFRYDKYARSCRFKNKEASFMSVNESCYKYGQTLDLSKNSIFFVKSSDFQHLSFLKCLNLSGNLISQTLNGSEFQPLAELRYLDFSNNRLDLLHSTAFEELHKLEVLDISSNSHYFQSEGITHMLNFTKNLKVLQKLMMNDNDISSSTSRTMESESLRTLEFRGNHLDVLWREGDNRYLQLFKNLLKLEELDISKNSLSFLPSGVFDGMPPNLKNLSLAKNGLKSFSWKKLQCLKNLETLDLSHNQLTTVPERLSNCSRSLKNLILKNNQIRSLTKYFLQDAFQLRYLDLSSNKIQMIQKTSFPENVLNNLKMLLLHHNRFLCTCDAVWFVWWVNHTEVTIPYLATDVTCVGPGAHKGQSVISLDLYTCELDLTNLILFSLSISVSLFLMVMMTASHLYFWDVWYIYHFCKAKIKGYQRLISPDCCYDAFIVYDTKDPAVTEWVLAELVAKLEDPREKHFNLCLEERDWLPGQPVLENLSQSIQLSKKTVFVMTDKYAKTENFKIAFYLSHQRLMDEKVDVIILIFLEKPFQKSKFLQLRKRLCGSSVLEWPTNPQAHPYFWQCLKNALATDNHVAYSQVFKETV
Method in brief: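 HEK293 cells expressing hTLR7 with NF-κB/AP-1-driven SEAP reporter, seeded 3.10E4 cells/well, pre-incubated 18–24 h, then exposed to 3-fold compound dilutions (0.01–20 μM) for 24 h at 37 °C. Supernatant SEAP read with QUANTI-Blue; EC50 as concentration giving 50% activation.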

EC50 (human TLR8)	EC50 (human TLR7; 24 h incubation, SEAP readout)	activation at 20 µM (human TLR8)	EC50 (human TLR7; μM)	activation at 20 µM (human TLR7)	Compound
> 20000 nM	3.1 µM				CCCCc1nc2c(N)nnc(-c3ccc[nH]3)c2n1Cc1ccc(OC)cc1 [Compound 64, 2-butyl-1-(4-methoxybenzyl)-7-(1H-pyrrol-2-yl)-1H-imidazo[4,5-d]pyridazin-4-amine hydrochloride]
	7.97 µM	15%			CCCCc1nc2c(N)nnc(-c3ccccc3)c2n1Cc1ccc(OC)cc1 [Compound 92, 2-butyl-1-(4-methoxybenzyl)-7-phenyl-1H-imidazo[4,5-d]pyridazin-4-amine]
252 nM	0.136 µM				CCCCc1nc2c(N)nnc(-c3cc[nH]c3)c2n1Cc1ccc(CN)cc1 [Compound 135, 1-(4-(aminomethyl)benzyl)-2-butyl-7-(1H-pyrrol-3-yl)-1H-imidazo[4,5-d]pyridazin-4-amine 2,2,2-trifluoroacetate]
> 20000 nM	0.144 µM				CCCCc1nc2c(N)nnc(OC(C)C)c2n1Cc1ccc(CN)cn1 [Compound 26, 1-((5-(aminomethyl)pyridin-2-yl)methyl)-2-butyl-7-isopropoxy-1H-imidazo[4,5-d]pyridazin-4-amine]
		14.7%	> 20 µM		CCCCc1nc2c(N)nnc(C3=CCNC3)c2n1Cc1ccc(CN)cc1 [Compound 144, 1-[[4-(aminomethyl)phenyl]methyl]-2-butyl-7-(2,5-dihydro-1H-pyrrol-3-yl)imidazo[4,5-d]pyridazin-4-amine]
2290 nM	0.021 µM				CCCCc1nc2c(N)nnc(OC(C)C)c2n1Cc1ccc(CN2CCNCC2)cc1 [Compound 40, 2-butyl-7-isopropoxy-1-(4-(piperazin-1-ylmethyl)benzyl)-1H-imidazo[4,5-d]pyridazin-4-amine]
		20.5%		15%	CCCCc1nc2c(N)nncc2n1Cc1ccc(OC)cc1 [Compound 95, 2-butyl-1-(4-methoxybenzyl)-1H-imidazo[4,5-d]pyridazin-4-amine]

The next lines start with the compound.

Compound	EC50 (human TLR8)	EC50 (human TLR7; 24 h incubation, SEAP readout)	activation at 20 µM (human TLR8)	EC50 (human TLR7; μM)	activation at 20 µM (human TLR7)
CCCCc1nc2c(N)nnc(N3CCC(c4ccc(CO)cc4)C3)c2n1C (centres unmarked) [Compound 85, (4-(1-(4-amino-2-butyl-1-methyl-1H-imidazo[4,5-d]pyridazin-7-yl)pyrrolidin-3-yl)phenyl)methanol hydrochloride]	3100 nM	0.606 µM			
CCCCc1nc2c(N)nnc(OC(C)C)c2n1Cc1ccc(CNCC(=O)OC(C)(C)C)cc1 [Compound 117, tert-butyl (4-((4-amino-2-butyl-7-isopropoxy-1H-imidazo[4,5-d]pyridazin-1-yl)methyl)benzyl)glycinate]	8880 nM	0.19 µM			
CCCCc1nc2c(N)nnc(OC(C)C)c2n1Cc1ccc(CN[C@H]2C[C@H](O)C2)cc1 [Compound 100, (1R,3R)-3-((4-((4-amino-2-butyl-7-isopropoxy-1H-imidazo[4,5-d]pyridazin-1-yl)methyl)benzyl)amino)cyclobutan-1-ol dihydrochloride salt]	2170 nM	0.036 µM			
CCCCc1nc2c(N)nnc(-c3ccoc3)c2n1Cc1ccc(OC)cc1 [Compound 67, 2-butyl-7-(furan-3-yl)-1-(4-methoxybenzyl)-1H-imidazo[4,5-d]pyridazin-4-amine]	> 20000 nM	2.06 µM			
CCCCc1nc2c(N)nnc(OC(C)C)c2n1Cc1cccc(CNC(C)C)c1 [Compound 128, 2-butyl-7-isopropoxy-1-(3-((isopropylamino)methyl)benzyl)-1H-imidazo[4,5-d]pyridazin-4-amine dihydrochloride salt]	> 20000 nM	5.98 µM			
CCCCc1nc2c(N)nnc(Oc3ccccc3)c2n1Cc1ccc(OC)cc1 [Compound 72, 2-butyl-1-(4-methoxybenzyl)-7-phenoxy-1H-imidazo[4,5-d]pyridazin-4-amine]	> 20000 nM	3.76 µM			
CCCCc1nc2c(N)nnc(N3CCCC3)c2n1C [Compound 42, 2-butyl-1-methyl-7-(pyrrolidin-1-yl)-1H-imidazo[4,5-d]pyridazin-4-amine]	8780 nM	1.48 µM			
CCCCc1nc2c(N)nnc(C3CCOC3)c2n1Cc1ccc(OC)cc1 (centres unmarked) [Compound 59, 2-butyl-1-(4-methoxybenzyl)-7-(tetrahydrofuran-3-yl)-1H-imidazo[4,5-d]pyridazin-4-amine]	> 20000 nM	0.943 µM			
CCCCc1nc2c(N)nnc(OC(C)C)c2n1CCCCN(C(C)=O)C1CS(=O)(=O)C1 [Compound 153, N-[4-(7-amino-2-butyl-4-isopropoxy-imidazo[4,5-d]pyridazin-3-yl)butyl]-N-(1,1-dioxothietan-3-yl)acetamide]	> 20000 nM	18.4 µM			
CCCCc1nc2c(N)nnc(C=C(C)C)c2n1Cc1ccc(OC)cc1 [Compound 60, 2-butyl-1-(4-methoxybenzyl)-7-(2-methylprop-1-en-1-yl)-1H-imidazo[4,5-d]pyridazin-4-amine]	> 20000 nM	0.813 µM			
CCCCc1nc2c(N)nnc(OC(C)C)c2n1Cc1ccc(CNC2CC2)cc1 [Compound 36, 2-butyl-1-(4-((cyclopropylamino)methyl)benzyl)-7-isopropoxy-1H-imidazo[4,5-d]pyridazin-4-amine]	448 nM	0.019 µM			
CCCCc1nc2c(N)nnc(OC(C)C)c2n1Cc1cccc(CN(C)C)c1 [Compound 125, 2-butyl-1-(3-((dimethylamino)methyl)benzyl)-7-isopropoxy-1H-imidazo[4,5-d]pyridazin-4-amine]	115 nM	0.392 µM			
CCCNc1nc2c(N)nnc(OC(C)C)c2n1Cc1ccc(CN)cc1 [Compound 163, 3-[[4-(aminomethyl)phenyl]methyl]-4-isopropoxy-N2-propyl-imidazo[4,5-d]pyridazine-2,7-diamine]			15.4%		16.7%
CCCCc1nc2c(N)nnc(OC3CC[S+]([O-])C3)c2n1Cc1ccc(OC)cc1 (single isomer, unassigned; isomer a) [Compound 65, 3-((4-amino-2-butyl-1-(4-methoxybenzyl)-1H-imidazo[4,5-d]pyridazin-7-yl)oxy)tetrahydrothiophene 1-oxide isomer A]	> 20000 nM	2.21 µM			
CCCCc1nc2c(N)nnc(-c3cccn3C)c2n1Cc1ccc(OC)cc1 [Compound 70, 2-butyl-1-(4-methoxybenzyl)-7-(1-methyl-1H-pyrrol-2-yl)-1H-imidazo[4,5-d]pyridazin-4-amine hydrochloride]	> 20000 nM	4 µM			

Source: patent publication US12583861B2, “Derivatives of imidazo[4,5-d]pyridazine, their preparation and their therapeutic application” (SANOFI, priority 2021, dated 2026)
